These results are taken from patent publication US20230113037A1 (Bayer Aktiengesellschaft, priority 2019, published 2023).

Assay [1] has as its target T1, AHR (Mus musculus, UniProt P30561).
T1 sequence (P30561 1-848 P471L/N533S/M589L): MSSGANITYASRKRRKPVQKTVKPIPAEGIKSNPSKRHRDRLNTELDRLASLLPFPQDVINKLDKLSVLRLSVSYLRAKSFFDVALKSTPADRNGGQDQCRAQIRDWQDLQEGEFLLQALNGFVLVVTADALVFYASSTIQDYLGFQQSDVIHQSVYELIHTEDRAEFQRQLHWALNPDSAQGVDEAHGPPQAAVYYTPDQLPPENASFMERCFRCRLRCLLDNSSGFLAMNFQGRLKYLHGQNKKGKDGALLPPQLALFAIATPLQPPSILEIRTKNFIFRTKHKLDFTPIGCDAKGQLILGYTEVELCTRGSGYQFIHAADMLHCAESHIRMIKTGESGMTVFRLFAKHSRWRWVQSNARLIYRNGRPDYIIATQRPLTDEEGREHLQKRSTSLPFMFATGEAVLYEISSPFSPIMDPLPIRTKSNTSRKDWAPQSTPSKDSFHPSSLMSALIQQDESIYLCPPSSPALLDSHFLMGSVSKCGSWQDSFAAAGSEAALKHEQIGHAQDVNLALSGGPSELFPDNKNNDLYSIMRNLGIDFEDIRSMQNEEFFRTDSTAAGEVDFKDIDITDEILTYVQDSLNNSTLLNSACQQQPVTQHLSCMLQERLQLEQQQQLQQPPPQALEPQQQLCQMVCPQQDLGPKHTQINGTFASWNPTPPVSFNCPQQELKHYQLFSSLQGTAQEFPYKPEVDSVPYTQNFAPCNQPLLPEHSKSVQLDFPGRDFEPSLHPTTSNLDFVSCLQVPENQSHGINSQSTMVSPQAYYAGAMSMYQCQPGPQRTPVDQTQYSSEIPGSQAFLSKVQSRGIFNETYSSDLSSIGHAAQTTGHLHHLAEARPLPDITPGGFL
Nature of the assay: In vitro assay 3: antagonism in mouse cell line (AHR transactivation, firefly luciferase reporter, kynurenic acid prestimulated). Format: cell-based. The gist of the method:
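Mouse cells stably carrying a DRE-driven, AHR-inducible firefly luciferase reporter were prestimulated with the endogenous agonist kynurenic acid before compound addition. Luciferase activity was measured by luminescence and normalized to positive and negative controls, with cells lacking kynurenic acid serving as full-inhibition control. Repeat tests are reported as mean or median.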
In general terms: Reporter assays use an easily measured gene product as a stand-in for the process of interest.

Assay [2] concerns the target T2, AHR (Homo sapiens, UniProt P35869).
T2 construct: U87 MG glioblastoma cells (ATCC #HTB-14) endogenously expressing AHR; endogenous in cells; host or cells: U87 MG glioblastoma cells (ATCC #HTB-14)
T2 sequence (P35869 11-848): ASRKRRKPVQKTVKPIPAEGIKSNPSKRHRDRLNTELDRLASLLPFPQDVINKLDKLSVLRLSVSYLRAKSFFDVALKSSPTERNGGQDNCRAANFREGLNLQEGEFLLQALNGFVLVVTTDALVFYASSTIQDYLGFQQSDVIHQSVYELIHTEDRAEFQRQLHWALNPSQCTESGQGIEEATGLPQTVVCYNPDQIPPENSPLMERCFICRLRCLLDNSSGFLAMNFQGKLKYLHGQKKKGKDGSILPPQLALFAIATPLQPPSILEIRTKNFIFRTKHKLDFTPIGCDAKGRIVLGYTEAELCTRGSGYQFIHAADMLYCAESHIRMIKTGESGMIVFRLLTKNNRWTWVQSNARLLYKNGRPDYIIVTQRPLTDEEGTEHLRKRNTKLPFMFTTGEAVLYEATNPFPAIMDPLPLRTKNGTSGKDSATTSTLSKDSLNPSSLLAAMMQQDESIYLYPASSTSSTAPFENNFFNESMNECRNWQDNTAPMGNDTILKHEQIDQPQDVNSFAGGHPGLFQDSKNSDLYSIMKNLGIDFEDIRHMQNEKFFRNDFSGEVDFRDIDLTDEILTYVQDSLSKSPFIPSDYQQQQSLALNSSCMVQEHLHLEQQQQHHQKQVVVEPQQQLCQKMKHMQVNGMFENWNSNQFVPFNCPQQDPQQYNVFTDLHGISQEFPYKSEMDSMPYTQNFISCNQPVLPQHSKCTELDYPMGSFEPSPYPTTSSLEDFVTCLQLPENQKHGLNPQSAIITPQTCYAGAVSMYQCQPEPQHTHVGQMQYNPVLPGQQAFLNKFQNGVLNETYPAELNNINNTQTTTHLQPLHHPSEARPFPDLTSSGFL
The experiment in a line: In vitro assay 1: antagonism in human cell line (AHR transactivation, firefly luciferase reporter, kynurenic acid prestimulated). The conditions noted are these: AHR Antagonism Human IC50 [M]. Format: cell-based. A digest of the protocol: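 U87 MG glioblastoma cells with endogenous AHR, stably carrying a DRE-driven firefly luciferase reporter and constitutive Renilla reporter, prestimulated with kynurenic acid before compound addition. Firefly and Renilla read by dual luciferase; Renilla flags toxicity; normalized to controls (150 μM kynurenic acid + 5 μM staurosporine as full inhibition); repeat values averaged or median.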

[3] abbreviates: mouse Hepa 1c1c7 cells, 200 μM kynurenic acid, 20 hours, read-out: AHR Antagonism Mouse IC50.
Setting [4] is: Hepa 1c1c7 cells, 200 μM kynurenic acid, 20 hours, firefly luciferase reporter, read-out: AHR Antagonism Mouse IC50.

Where two headings read alike, the source gives them in different places.

By IC50 is commonly meant the concentration that inhibits the measured activity by half. With `COc1ccc(-c2nc3c4cccc(C5(C(F)(F)F)CC5)c4nc(N[C@@H]4CNCCNC4=O)n3n2)cc1` [Example 431, (6R)-6-({2-(4-methoxyphenyl)-7-[1-(trifluoromethyl)cyclopropyl][1,2,4]triazolo[1,5-c]quinazolin-5-yl}amino)-1,4-diazepan-5-one], the IC50 on AHR [1] (setting [3]) was determined as 60.6 nM; at AHR [2], 1.43e-08 M.

Consider `C[C@@H](Nc1nc2c(C(F)(F)F)cccc2c2nc(-c3cnn(C)c3)nn12)C(=O)N1CCC(N(C)C)C1` (mixture of isomers) [Example 876, (2R)-1-[(3R/S)-3-(dimethylamino)pyrrolidin-1-yl]-2-{[2-(1-methyl-1H-pyrazol-4-yl)-7-(trifluoromethyl)[1,2,4]triazolo[1,5-c]quinazolin-5-yl]amino}propan-1-one], for which the values for the IC50 at AHR [1] (setting [4]) and on AHR [2] (firefly luciferase reporter) were 110 nM and 5.39e-08 M, respectively.

As for `COc1cccc(-c2nc3c4cc(F)ccc4nc(N[C@@H]4CCCCNC4=O)n3n2)c1` [Example 159, (3R)-3-{[9-fluoro-2-(3-methoxyphenyl)[1,2,4]triazolo[1,5-c]quinazolin-5-yl]amino}azepan-2-one], the results for the IC50 on AHR [1] (setting [3]) and against AHR [2] were 0.227 nM and 1.03e-09 M, respectively.

Regarding `COc1ccc(-c2nc3c4cccc(C(C)(C)O)c4nc(N[C@@H]4CCCCNC4=O)n3n2)cc1` [Example 859, (3R)-3-{[7-(2-hydroxypropan-2-yl)-2-(4-methoxyphenyl)[1,2,4]triazolo[1,5-c]quinazolin-5-yl]amino}azepan-2-one], the IC50 at AHR [1] (setting [4]) was found to be 39.4 nM; against AHR [2] (firefly luciferase reporter) it was 4.11e-09 M.

As to `O=C1NCCCC[C@H]1Nc1nc2c(Br)cc(Br)cc2c2nc(-c3cccc(F)c3)nn12` [Example 592, (3R)-3-{[7,9-dibromo-2-(3-fluorophenyl)[1,2,4]triazolo[1,5-c]quinazolin-5-yl]amino}azepan-2-one], the half-maximal inhibitory concentration (IC50) on AHR [1] (setting [3]) was > 20000 nM; against AHR [2], 5.21e-07 M.

In the case of `COc1ccc(-c2nc3c4ccc(C(F)(F)F)cc4nc(N[C@@H]4CCCCNC4=O)n3n2)cc1` [Example 548, (3R)-3-{[2-(4-methoxyphenyl)-8-(trifluoromethyl)[1,2,4]triazolo[1,5-c]quinazolin-5-yl]amino}azepan-2-one], the results for the IC50 on AHR [1] (setting [3]) and against AHR [2] were 2400 nM and 9.46e-07 M, respectively.

For `COc1ccc(-c2nc3c4cccc(Br)c4nc(N[C@H](C)C(=O)N4CCOC[C@H]4C)n3n2)cc1` [Example 911, (2R)-2-{[7-bromo-2-(4-methoxyphenyl)[1,2,4]triazolo[1,5-c]quinazolin-5-yl]amino}-1-[(3R)-3-methylmorpholin-4-yl]propan-1-one], the concentration for half-maximal inhibition (IC50) on AHR [1] (read-out: AHR Antagonism Mouse IC50, Hepa 1c1c7 cells, 200 μM kynurenic acid, 20 hours, firefly luciferase reporter) was determined as 1.98 nM; on AHR [2] (firefly luciferase reporter) it was 1.57e-09 M.

On to `O=C1NCCCC[C@H]1Nc1nc2c(C(F)(F)F)cccc2c2nc(-c3cnn(C4CCC4)c3)nn12` [Example 741, (3R)-3-{[2-(1-cyclobutyl-1H-pyrazol-4-yl)-7-(trifluoromethyl)[1,2,4]triazolo[1,5-c]quinazolin-5-yl]amino}azepan-2-one], for which the half-maximal inhibitory concentration (IC50) at AHR [1] (setting [3]) stood at 1.41 nM; against AHR [2], 7.02e-10 M.

On to `CC[C@@H](Nc1nc2ccccc2c2nc(-c3ccsc3)nn12)C(N)=O` [Example 344], for which the IC50 at AHR [1] (setting [3]) worked out at 0.628 nM; on AHR [2], 3.57e-09 M.

As for `COC(=O)[C@H](Nc1nc2c(Br)cccc2c2nc(-c3cnn(C)c3)nn12)C(C)C` [Example 868, methyl N-[7-bromo-2-(1-methyl-1H-pyrazol-4-yl)[1,2,4]triazolo[1,5-c]quinazolin-5-yl]-D-valinate], the results for the IC50 at AHR [1] (setting [4]) and against AHR [2] (firefly luciferase reporter) were 6.29 nM and 6.28e-09 M, respectively.

As to `O=C1NCCCC[C@H]1Nc1nc2ccccc2c2nc(-c3ccccc3Br)nn12` [Example 452, (3R)-3-{[2-(2-bromophenyl)[1,2,4]triazolo[1,5-c]quinazolin-5-yl]amino}azepan-2-one], the IC50 was found to be 3.35 nM on AHR [1] (setting [3]) and 3.98e-09 M at AHR [2].

With `CCNC(=O)[C@@H](C)Nc1nc2ccccc2c2nc(-c3cccc(OC)c3)nn12` [Example 107, N-ethyl-N^2-[2-(3-methoxyphenyl)[1,2,4]triazolo[1,5-c]quinazolin-5-yl]-D-alaninamide], the IC50 came to 9.86 nM on AHR [1] (setting [3]) and 1.06e-08 M against AHR [2].
